Measurements taken from patent US20040204486A1, “Anandamide and structurally related lipids as vanilloid receptor modulators” (priority 2000, published 2004).
Like-named read-outs stand apart in the source and are kept apart here. No end group written: not given here.

Tests used:
[1] = system: guinea pig basilar artery; assay: Recording of tension: relaxation of isolated guinea pig basilar artery contracted with prostaglandin F2α; conditions: for effect on anandamide-induced relaxation: capsaicin 10 μM pre-treatment, 8-37 CGRP 2 μM; for Emax / EC50: Cavia porcellus; for Emax: read-out: Emax of relaxation, guinea pig basilar artery; for EC50: read-out: pEC50 of relaxation, guinea pig basilar artery (converted)
[2] = system: rat hepatic artery; assay: Recording of tension: relaxation of isolated rat hepatic artery contracted with phenylephrine; conditions: for effect on AM404-induced relaxations / effect on anandamide-induced relaxation: capsaicin 10 μM pre-treatment; for effect on AM404-induced relaxations: 8-37 CGRP 3 μM, SR141716A 0.3 μM; for EC50: read-out: pEC50 of relaxation (converted); for effect on anandamide-induced relaxation: 8-37 CGRP 2 μM; for vasodilator response (relaxation): α-latrotoxin 1 nM
[3] = system: rat mesenteric artery; assay: Recording of tension: relaxation of isolated rat mesenteric artery contracted with phenylephrine; conditions: for effect on relaxant effects of 1-arachidonylglycerol and 2-arachidonylglycerol: rat mesenteric arteries, capsazepine 1 μM; for effect on relaxant effects of 1-arachidonylglycerol and 2-arachidonylglycerol / effect on anandamide-induced relaxation: capsaicin 10 μM pre-treatment; for effect on anandamide-induced relaxation: 8-37 CGRP 2 μM
[4] = molecular target: T1, vanilloid receptors (Rattus norvegicus, UniProt O35433); assay: Schild analysis of capsazepine antagonism of relaxation in rat hepatic artery; conditions: for slope of the Schild regression line: mean±SEM; for Kb: pA2 (Schild plot)
T1 construct: To determine whether native vanilloid receptors might be involved in the action of anandamide; from tissue; host or cells: hepatic artery ring segments from female Wistar-Hannover rats
Procedure: Recording of tension. Experiments were performed on hepatic (400 μm outer diameter) and mesenteric (200 μm outer diameter) arteries from female Wistar-Hannover rats (200-250 g) and on basilar arteries (300 μm outer diameter) from male guinea pigs. […] All experiments were performed in the presence of N^G-nitro-L-arginine (0.3 mM) and indomethacin (10 μM) to eliminate any contribution of nitric oxide and cyclooxygenase products, respectively (refs. 38, 23). Relaxant responses were studied in preparations contracted with phenylephrine (rat hepatic and mesenteric arteries) and prostaglandin F2α (guinea pig basilar artery) (refs. 38, 43). When stable contractions were obtained, agonists were added cumulatively to determine concentration-response relationships.
Some preparations were pre-treated with capsaicin for 1 hour followed by washout for 20 minutes. Each vessel segment was exposed to only one treatment. The experiments were carried out with the approval of the local ethics committee.
Calculations and statistics. Relaxations are expressed as percentage reversal of the prevailing contraction (100% indicates a complete reversal to basal tension). […] Data are presented as means±s.e.mean (vertical lines in figures), and n indicates the number of vascular segments (animals) examined. pA2 and slope values of the Shild plots were estimated according to the Jackknife method (ref. 46). Statistical analysis was performed by using Student's t-test (two-tailed), Mann-Whitney U-test, or analysis of variance (ANOVA) on log transformed values (cyclic AMP) followed by Bonferroni Dunn's post hoc test (Statview 4.12). Statistical significance was accepted when P<0.05.

[5] = system: CGRP release from perivascular sensory nerves; assay: Measurement of CGRP release from rat hepatic artery segments (radioimmunoassay)
Procedure: Measurement of CGRP and cyclic AMP.
After 10 minutes the segments were removed and the physiological salt solution was evaporated.

[6] = system: cyclic AMP content; assay: Measurement of cyclic AMP content in rat hepatic artery segments
[7] = Rattus norvegicus, control (agonist alone)
[8] = Rattus norvegicus, in presence of SR141716A (0.3 μM)
[9] = in presence of SR141716A (0.3 μM)
[10] = guinea pig basilar artery, 10 μM
[11] = guinea pig basilar artery, capsazepine 3 μM
[12] = rat mesenteric artery, capsazepine 3 μM
[13] = segments pre-treated with capsaicin (10 μM)

T1 sequence (O35433 whole entry): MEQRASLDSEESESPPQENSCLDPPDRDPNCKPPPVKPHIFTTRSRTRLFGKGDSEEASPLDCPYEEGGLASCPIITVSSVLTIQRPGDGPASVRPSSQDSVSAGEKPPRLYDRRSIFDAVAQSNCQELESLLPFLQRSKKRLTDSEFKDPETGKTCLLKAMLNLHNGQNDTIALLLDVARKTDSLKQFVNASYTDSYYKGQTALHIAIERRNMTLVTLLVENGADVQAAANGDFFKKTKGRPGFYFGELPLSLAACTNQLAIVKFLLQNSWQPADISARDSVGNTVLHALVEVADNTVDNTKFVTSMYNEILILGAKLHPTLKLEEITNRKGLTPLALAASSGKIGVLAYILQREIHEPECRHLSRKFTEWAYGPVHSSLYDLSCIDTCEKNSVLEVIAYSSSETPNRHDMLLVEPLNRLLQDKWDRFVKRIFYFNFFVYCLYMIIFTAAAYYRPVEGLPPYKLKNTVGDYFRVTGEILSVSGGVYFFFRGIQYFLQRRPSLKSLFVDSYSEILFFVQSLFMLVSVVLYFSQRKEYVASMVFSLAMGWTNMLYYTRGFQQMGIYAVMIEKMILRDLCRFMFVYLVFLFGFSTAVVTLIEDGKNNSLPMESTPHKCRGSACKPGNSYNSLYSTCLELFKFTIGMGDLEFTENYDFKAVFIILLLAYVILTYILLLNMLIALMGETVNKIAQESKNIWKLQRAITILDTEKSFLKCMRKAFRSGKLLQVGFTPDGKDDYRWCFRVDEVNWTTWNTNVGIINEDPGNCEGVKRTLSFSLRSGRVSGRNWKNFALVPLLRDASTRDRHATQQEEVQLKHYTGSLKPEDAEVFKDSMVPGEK

Molecule: Cc1c(C(=O)c2cccc3ccccc23)c2cccc3c2n1[C@H](CN1CCOCC1)CO3 [WIN 55,212-2]
- relaxation ([1]; guinea pig basilar artery): did not produce any relaxation
- relaxation [2]: did not produce any relaxation

Molecule: Cc1c(C(=O)NN2CCCCC2)nn(-c2ccc(Cl)cc2Cl)c1-c1ccc(Cl)cc1.Cl [SR141716A, N-(piperidin-1-yl)-5-(4-chlorophenyl)-1-(2,4-dichlorophenyl)-4-methyl-1H-pyrazole-3-carboxamide hydrochloride]
- effect on AM404-induced relaxations ([2]; capsazepine 3 μM): without effect

Molecule: CCCCC/C=C\C/C=C\C/C=C\C/C=C\CCCC(=O)N[C@H](C)CO [methanandamide]
- Emax [2, 7]: 99 ± 1%
- EC50 [2, 7]: 316 nM
- Emax [2, 8]: 99 ± 1%
- Emax of relaxation ([2]; control (agonist alone)): 97±1%
- pEC50 of relaxation ([2]; control (agonist alone)): 6.53±0.08
- pEC50 of relaxation [2, 9]: 6.30±0.04

Molecule: COc1cc(CNC(=O)CCCC/C=C/C(C)C)ccc1O [capsaicin]
- relaxation at 10 μM [1, 10]: completely relaxed
- effect on anandamide-induced relaxation [1, 11]: abolished
- relaxation at 10 μM ([2]; 10 μM): completely relaxed
- Emax [2, 7]: 99 ± 1%
- Emax ([2]; Rattus norvegicus, in presence of SR141716A (10 μM)): 90 ± 3%
- effect on anandamide-induced relaxation ([2]; capsazepine 3 μM): abolished
- effect on AM404-induced relaxations ([2]; capsazepine 3 μM): abolished
- EC50 ([2]; control (agonist alone)): 4.27 nM
- pEC50 of relaxation ([2]; in presence of SR141716A (10 μM)): 7.42±0.12
- effect on relaxant effects of 1-arachidonylglycerol and 2-arachidonylglycerol [3]: abolished
- effect on anandamide-induced relaxation [3, 12]: abolished

Molecule: Oc1cc2c(cc1O)CN(C(=S)NCCc1ccc(Cl)cc1)CCC2 [capsazepine]
- slope of the Schild regression line ([4]; capsaicin as agonist): 2.12±0.36
- slope of the Schild regression line ([4]; methanandamide as agonist): 2.41±0.32
- Kb ([4]; capsaicin as agonist): 575 nM
- Kb ([4]; methanandamide as agonist): 457 nM
- effect on anandamide-induced relaxation [1, 11]: significantly inhibited
- effect on capsaicin-induced relaxation [1, 11]: significantly inhibited
- effect on anandamide-induced relaxation ([2]; capsazepine 3 μM): significantly inhibited
- effect on AM404-induced relaxations ([2]; capsazepine 3 μM): significant right-ward shift
- effect on capsaicin-induced relaxation ([2]; capsazepine 3 μM): significantly inhibited
- effect on relaxant effects of 1-arachidonylglycerol and 2-arachidonylglycerol [3]: inhibited
- effect on anandamide-induced relaxation [3, 12]: significantly inhibited
- effect on capsaicin-induced relaxation [3, 12]: significantly inhibited
- effect on anandamide-induced release of CGRP ([5]; capsazepine 10 μM): inhibited

Molecule: NCCO [ethanolamine]
- relaxation at 10 μM [1, 10]: inactive
- relaxation at 10 μM ([2]; 10 μM): inactive

Molecule: CCCCCCC(C)(C)c1ccc([C@@H]2C[C@H](O)CC[C@H]2CCCO)c(O)c1 [CP 55,940]
- relaxation at 10 μM [1, 10]: significant relaxation
- relaxation after pre-treatment with capsaicin ([1]; guinea pig basilar artery, 10 μM, capsaicin (10 μM) pre-treatment): resistant to pre-treatment with capsaicin
- relaxation at 10 μM ([2]; 10 μM): significant relaxation
- relaxation after pre-treatment with capsaicin ([2]; 10 μM, capsaicin (10 μM) pre-treatment): resistant to pre-treatment with capsaicin

Molecule: 8-37 CGRP: selective CGRP receptor antagonist (VTHRLAGLLSRSGGVVKNNFVPTNVGSKAF; ends and bridges not checked; UniProt P06881 90-119, looked up, fragment)
- effect on anandamide-induced relaxation [1, 11]: inhibited
- effect on anandamide-induced relaxation ([2]; capsazepine 3 μM): inhibited
- effect on AM404-induced relaxations ([2]; capsazepine 3 μM): abolished
- effect on anandamide-induced relaxation [3, 12]: inhibited

Molecule: CCCCCCCCCCCCCCCC(=O)NCCO [palmitylethanolamide]
- relaxation ([1]; guinea pig basilar artery): did not produce any relaxation
- relaxation [2]: did not produce any relaxation

Molecule: CCCCC/C=C\C/C=C\C/C=C\C/C=C\CCCC(=O)O [arachidonic acid]
- relaxation at 10 μM [1, 10]: inactive
- relaxation at 10 μM ([2]; 10 μM): inactive

Molecule: CCCCC/C=C\C/C=C\C/C=C\C/C=C\CCCC(=O)NCCO [anandamide, arachidonylethanolamide]
- Emax ([1]; control (agonist alone)): 92 ± 3%
- Emax [1, 9]: 91 ± 2%
- EC50 ([1]; control (agonist alone)): 955 nM
- EC50 [1, 9]: 776 nM
- relaxation at 10 μM [1, 10]: completely relaxed
- relaxation at 10 μM ([2]; 10 μM): completely relaxed
- Emax [2, 7]: 100 ± 1%
- EC50 [2, 7]: 355 nM
- Emax [2, 8]: 97 ± 1%
- pEC50 of relaxation ([2]; control (agonist alone)): 6.49±0.01
- pEC50 of relaxation [2, 9]: 6.44±0.12
- release of CGRP ([5]; anandamide 10 μM, 10 minute exposure): significant release of CGRP
- release of CGRP after capsaicin pre-treatment [5, 13]: absent
- tissue content of cyclic AMP ([6]; anandamide 10 μM or CGRP 10 nM, 5 minutes): increase in tissue content of cyclic AMP
- tissue content of cyclic AMP after capsaicin pre-treatment [6, 13]: absent

Molecule: CCCCC/C=C\C/C=C\C/C=C\C/C=C\CCCCOCC(O)CO (stereo not drawn) [1-arachidonylglycerol]
- vasodilator action ([3]; rat mesenteric arteries contracted with phenylephrine): vasodilators

Molecule: CCCCCCC(C)(C)c1cc(O)c2c(c1)OC(C)(C)[C@@H]1CC=C(CO)C[C@@H]21 [HU 210]
- relaxation ([1]; guinea pig basilar artery): did not produce any relaxation
- relaxation [2]: did not produce any relaxation

B1: α-latrotoxin (protein, UniProt P23631 21-1199, looked up)
Alpha-latrotoxin-Lt1a: EGEDLTLEEKAEICSELELQQKYVDIASNIIGDLSSLPIAGKIAGTIAAAAMTATHVASGRLDIEQTLLGCSDLPFDQIKEVLENRFNEIDRKLDSHSAALEEITKLVEKSISVVEKTRKQMNKRFDEVMKSIQDAKVSPIISKINNFARYFDTEKERIRGLKLNDYILKLEEPNGILLHFKESRTPTDDSLQAPLFSIIEEGYAVPKSIDDELAFKVLYALLYGTQTYVSVMFFLLEQYSFLANHYYEKGYLEKYDEYFNSLNNVFLDFKSSLVGTGTSNNEGLLDRVLQVLMTVKNSEFLGLEKNGVDEMLNEKINLFNKIKEEIEGKQKMTLSETPENFAQISFDKDITTPIGDWRDGREVRYAVQYASETLFSKISHWSDPVSVREKACPTLRMPVDQTRRNVLVFRKFDSSKPQLVGEITPYLSNFIDIDRDLYNAASNPDSAVGFKEFTKLNYDGANIRATFDHGRTVFHAAAKSGNDKIMFGLTFLAKSTELNQPDKKGYTPIHVAADSGNAGIVNLLIQRGVSINSKTYHFLQTPLHLAAQRGFVTTFQRLMESPEININERDKDGFTPLHYAIRGGERILEAFLNQISIDVNAKSNTGLTPFHLAIIKNDWPVASTLLGSKKVDINAVDENNITALHYAAILGYLETTKQLINLKEINANVVSSPGLLSALHYAILYKHDDVASFLMRSSNVNVNLKALGGITPLHLAVIQGRKQILSLMFDIGVNIEQKTDEKYTPLHLAAMSKYPELIQILLDQGSNFEAKTNSGATPLHLATFKGKSQAALILLNNEVNWRDTDENGQMPIHGAAMTGLLDVAQAIISIDATVVDIEDKNSDTPLNLAAQNSHIDVIKYFIDQGADINTRNKKGLAPLLAFSKKGNLDMVKYLFDKNANVYIADNDGMNFFYYAVQNGHLNIVKYAMSEKDKFEWSNTDNNRRDECPNEECAISHFAVCDAVQFDRIEIVKYFVGTLGNFAICGPLHQAARYGHLDIVKYLVEEEFLSVDGSKTDTPLCYASENGHFTVVQYLVSNGAKVNHDCGNGMTAIDKAITKNHLQVVQFLAANGVDFRRKNSRGTTPFLTAVAENALHIAEYLIREKRQDININEQNVDKDTALHLAVYYKNLQMIKLLIKYGIDVTIRNAYDKTALDIAIDAKFSNIVEYLKTKSGKFRR
- vasodilator response (relaxation) ([2]; CGRP 8-37 (2 μM)): −8±3%
- vasodilator response (relaxation) ([2]; capsaicin pre-treatment): −16±8%
- vasodilator response (relaxation) ([2]; capsazepine (3 μM)): 93±2%
- vasodilator response (relaxation) ([2]; control): 98±1%
